In ChEMBL document CHEMBL3580582, “The Cephalostatins. 23. Conversion of Hecogenin to a Steroidal 1,6-Dioxaspiro[5.5]nonane Analogue for Cephalostatin 11” (2015):
≈ marks a conversion by molar mass, not a printed value.

Assays:
Assay type in all cases: functional
P388 = experiment: Cytotoxicity against mouse P388 cells assessed as growth inhibition after 48 hrs by coulter particle counter analysis; details: P388, 48 h, read-out: ED50 (the source's name)
[1] = Cytotoxicity against human NCI60 cells by SRB assay
[2] = Cytotoxicity against human NCI60 cells

For `CC(=O)OC[C@]1(C)CC[C@@]2(O[C@H]3C[C@H]4[C@@H]5CC[C@H]6CC(=O)CC[C@]6(C)[C@H]5CC(=O)[C@]4(C)[C@H]3[C@@H]2C)O1`, the EC50 (P388) was > 10 µg/mL.
With `CC(=O)O[C@H]1CC[C@@]2(C)[C@@H](CC[C@@H]3[C@@H]2CC(=O)[C@@]2(C)[C@H]3C[C@@H]3OC(CCC(C)CCl)=C(C)[C@@H]32)C1` (some centres undefined) the EC50 (P388) was > 100 µg/mL.
In the case of `CC1=C(CCC(C)CCl)O[C@H]2C[C@H]3[C@@H]4CC[C@H]5CC(=O)CC[C@]5(C)[C@H]4CC(=O)[C@]3(C)[C@@H]12` (some centres undefined), the EC50 (P388) is reported as > 100 µg/mL.
Work on `C=C(C)CCC1=C(C)[C@H]2[C@H](C[C@H]3[C@@H]4CC[C@H]5CC(=O)CC[C@]5(C)[C@H]4CC(=O)[C@@]32C)O1` yielded an EC50 (P388) of 14.5 µg/mL (≈ 35.3 µM).
`CC1=C(CC[C@](C)(O)CO)O[C@H]2C[C@H]3[C@@H]4CC[C@H]5CC(=O)CC[C@]5(C)[C@H]4CC(=O)[C@]3(C)[C@@H]12` showed an EC50 (P388) of 23.4 µg/mL (≈ 52.6 µM).
For `CC(=O)OC[C@@](C)(O)CCC1=C(C)[C@H]2[C@H](C[C@H]3[C@@H]4CC[C@H]5CC(=O)CC[C@]5(C)[C@H]4CC(=O)[C@@]32C)O1`, the EC50 (P388) was 19.3 µg/mL (≈ 39.7 µM).
In the case of `C[C@@H]1[C@]2(O[C@H]3C=C4[C@@H]5CC[C@H]6Cc7nc8c(nc7C[C@]6(C)[C@H]5C[C@@H](O)[C@]4(C)[C@]31O)C[C@@H]1CC[C@H]3C4=C[C@@H]5O[C@]6(CCC(C)(C)O6)[C@@H](C)[C@@H]5[C@@]4(C)[C@H](O)C[C@@H]3[C@@]1(C)C8)O[C@@](C)(CO)C[C@H]2O`, the GI50 [1] is reported as 0.48 nM.
`C[C@@H]1[C@]2(O[C@H]3C=C4[C@@H]5CC[C@H]6Cc7nc8c(nc7C[C@]6(C)[C@H]5C[C@@H](O)[C@]4(C)[C@]31O)C[C@@H]1CC[C@H]3C4=C[C@@H]5O[C@]6(CCC(C)(C)O6)[C@@H](C)[C@@H]5[C@@]4(C)[C@H](O)C[C@@H]3[C@@]1(C)C8)O[C@](C)(CO)C[C@H]2O` showed a GI50 [1] of 14 nM.
`C[C@@H]1[C@]2(O[C@H]3C=C4[C@@H]5CC[C@H]6Cc7nc8c(nc7C[C@]6(C)[C@H]5C[C@@H](O)[C@]4(C)[C@]31O)C[C@@H]1CC[C@H]3C4=CC[C@@H]5[C@H](C)[C@@]6(OC[C@]45C(=O)C[C@@H]3[C@@]1(C)C8)OC(C)(C)C[C@H]6O)O[C@](C)(CO)C[C@H]2O` [CEPHALOSTATIN 1] showed a GI50 [2] of 1.8 nM.
